Results on one molecule are retold here after article PMC9364316, “Macromolecular and Solution Properties of the Recombinant Fusion Protein HUG” (Biomacromolecules, 2022).

For the assay, the target named is T1, HUG (HELP-UnaG) (Anguilla japonica, UniProt P0DM59).
T1 construct: entire UnaG (139 aa) fused to the C-terminus of the synthetic human elastin-like polypeptide HELP (536 aa, VAPGVG hexapeptide repeats); fusion of 675 aa, 60,406 Da; expressed in E. coli, purified by inverse phase transition
T1 sequence (P0DM59 whole entry, the tested form may be a part): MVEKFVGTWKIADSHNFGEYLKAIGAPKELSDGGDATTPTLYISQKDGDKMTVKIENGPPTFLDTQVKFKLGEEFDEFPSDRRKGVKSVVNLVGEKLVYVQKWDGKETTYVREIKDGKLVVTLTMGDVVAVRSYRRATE
Briefly: fluorescence titration (ex […] nm, em […] nm), nonlinear fit of […] binding model.

`C=CC1=C(C)/C(=C/c2[nH]c(Cc3[nH]c(/C=C4\NC(=O)C(C)=C4C=C)c(C)c3CCC(=O)O)c(CCC(=O)O)c2C)NC1=O` [bilirubin] came in with a Kd of 1.1 nM.
